In ChEMBL document CHEMBL3286170, “Design, synthesis and antimycobacterial activity evaluation of natural oridonin derivatives” (2014):
Converted amounts (≈) assume the structure as drawn.

Assays:
Type in all cases: functional
Mycolicibacterium phlei = experiment: Antimycobacterial activity against Mycobacterium phlei ATCC 355 after 1 day by alamar blue assay; settings: ATCC 355, 24 h
[1] = test system: Mycolicibacterium smegmatis; experiment: Antimycobacterial activity against Mycobacterium smegmatis ATCC 19420 after 1 day; settings: ATCC 19420, 24 h
Mycobacterium marinum = experiment: Antimycobacterial activity against Mycobacterium marinum ATCC 927 after 7 days; settings: ATCC 927, 168 h

Compound	MIC (Mycolicibacterium phlei)	MIC [1]	MIC (Mycobacterium marinum)
C=C1C(=O)[C@@]23C(=O)O[C@H]4CCC(C)(C)[C@H]5[C@H](O)OC[C@@]45[C@@H]2CC[C@@H]1[C@H]3OC(=O)/C=C/c1ccc(OC)cc1	2 µg/mL (≈ 3.83 µM)	16 µg/mL (≈ 30.6 µM)	32 µg/mL (≈ 61.2 µM)
C=C1C(=O)[C@]23[C@H](OC(=O)c4ccc(C(F)(F)F)cc4)[C@H]1CC[C@H]2[C@@]12CO[C@]3(O)[C@@H](O)[C@@H]1C(C)(C)CC[C@@H]2O	16 µg/mL (≈ 29.8 µM)		
C=C1C(=O)[C@]23[C@H](OC(=O)c4ccc(C(F)(F)F)cc4)[C@H]1CC[C@H]2[C@@]12CO[C@]3(O)[C@@H](O)[C@@H]1C(C)(C)CCC2=O	16 µg/mL (≈ 29.9 µM)		
C=C1C(=O)[C@]23[C@H](OC(=O)/C=C/c4ccccc4)[C@H]1CC[C@H]2[C@@]12CO[C@]3(O)[C@@H](O)[C@@H]1C(C)(C)CC[C@@H]2O	1 µg/mL (≈ 2.02 µM)	8 µg/mL (≈ 16.2 µM)	8 µg/mL (≈ 16.2 µM)
C=C1C(=O)[C@]23[C@H](OC(=O)/C=C/c4ccc(F)cc4)[C@H]1CC[C@H]2[C@@]12CO[C@]3(O)[C@@H](O)[C@@H]1C(C)(C)CC[C@@H]2OC(C)=O	8 µg/mL (≈ 14.4 µM)	16 µg/mL (≈ 28.8 µM)	64 µg/mL (≈ 115 µM)
C=C1C(=O)[C@]23[C@H](O)[C@H]1CC[C@H]2[C@@]12CO[C@]3(O)[C@@H](O)[C@@H]1C(C)(C)CCC2=O	8 µg/mL (≈ 22.1 µM)		
CN[C@@H]1[C@H](O[C@H]2[C@H](O[C@H]3[C@H](O)[C@@H](O)[C@H](N=C(N)N)[C@@H](O)[C@@H]3N=C(N)N)O[C@@H](C)[C@]2(O)C=O)O[C@@H](CO)[C@H](O)[C@H]1O [STREPTOMYCIN]	0.5 µg/mL (≈ 0.86 µM)	0.125 µg/mL (≈ 0.215 µM)	0.5 µg/mL (≈ 0.86 µM)
C=C1C(=O)[C@]23[C@H](OC(=O)c4ccc(F)cc4)[C@H]1CC[C@H]2[C@@]12CO[C@]3(O)[C@@H](O)[C@@H]1C(C)(C)CC[C@@H]2O	32 µg/mL (≈ 65.8 µM)		
C=C1C(=O)[C@@]23C(=O)O[C@H]4CCC(C)(C)[C@H]5C(=O)OC[C@@]45[C@@H]2CC[C@@H]1[C@H]3O	16 µg/mL (≈ 44.4 µM)		
C=C1C(=O)[C@@]23C(=O)O[C@H]4CCC(C)(C)[C@H]5C(=O)OC[C@@]45[C@@H]2CC[C@@H]1[C@H]3OC(=O)c1ccc(F)cc1	2 µg/mL (≈ 4.15 µM)	16 µg/mL (≈ 33.2 µM)	32 µg/mL (≈ 66.3 µM)
C=C1C(=O)[C@]23[C@H](O)[C@H]1CC[C@H]2[C@@]12CO[C@@]3(O)[C@@H](O)[C@@H]1C(C)(C)CC[C@@H]2OC(C)=O [LASIOKAURIN]	1 µg/mL (≈ 2.46 µM)	16 µg/mL (≈ 39.4 µM)	32 µg/mL (≈ 78.7 µM)
C=C1C(=O)[C@]23[C@H](O)[C@H]1CC[C@H]2[C@@]12CO[C@]3(O)[C@@H](O)[C@@H]1C(C)(C)CC[C@@H]2O [ORIDONIN]	16 µg/mL (≈ 43.9 µM)	> 64 µg/mL	> 64 µg/mL
C=C1C(=O)[C@@]23C(=O)O[C@H]4CCC(C)(C)[C@H]5C(=O)OC[C@@]45[C@@H]2CC[C@@H]1[C@H]3OC(=O)/C=C/c1ccccc1	0.5 µg/mL (≈ 1.02 µM)	4 µg/mL (≈ 8.15 µM)	4 µg/mL (≈ 8.15 µM)
C=C1C(=O)[C@]23[C@H](OC(=O)C45CC6CC(CC(C6)C4)C5)[C@H]1CC[C@H]2[C@@]12CO[C@]3(O)[C@@H](O)[C@@H]1C(C)(C)CC[C@@H]2O	16 µg/mL (≈ 30.4 µM)		
C=C1C(=O)[C@]23[C@H](OC(=O)CCCCCCC)[C@H]1CC[C@H]2[C@@]12CO[C@]3(O)[C@@H](O)[C@@H]1C(C)(C)CC[C@@H]2O	2 µg/mL (≈ 4.08 µM)	16 µg/mL (≈ 32.6 µM)	16 µg/mL (≈ 32.6 µM)
C=C1C(=O)[C@]23[C@H](OC(=O)/C=C/c4ccc(F)cc4)[C@H]1CC[C@H]2[C@@]12CO[C@]3(O)[C@@H](O)[C@@H]1C(C)(C)CC[C@@H]2O	2 µg/mL (≈ 3.9 µM)	4 µg/mL (≈ 7.8 µM)	8 µg/mL (≈ 15.6 µM)
C=C1C(=O)[C@]23[C@H](OC(=O)/C=C/c4ccc(F)cc4)[C@H]1CC[C@H]2[C@@]12CO[C@]3(O)[C@@H](O)[C@@H]1C(C)(C)CCC2=O	8 µg/mL (≈ 15.7 µM)	16 µg/mL (≈ 31.3 µM)	64 µg/mL (≈ 125 µM)

Compound	MIC (Mycolicibacterium phlei)	MIC [1]	MIC (Mycobacterium marinum)
C=C1C(=O)[C@@]23C(=O)O[C@H]4CCC(C)(C)[C@H]5C(=O)OC[C@@]45[C@@H]2CC[C@@H]1[C@H]3OC(=O)/C=C/c1ccc(F)cc1	0.5 µg/mL (≈ 0.983 µM)	4 µg/mL (≈ 7.87 µM)	4 µg/mL (≈ 7.87 µM)
C=C1C(=O)[C@]23[C@H](OC(=O)c4ccc(C(F)(F)F)cc4)[C@H]1CC[C@H]2[C@@]12CO[C@]3(O)[C@@H](O)[C@@H]1C(C)(C)CC[C@@H]2OC(C)=O	16 µg/mL (≈ 27.7 µM)		
C=C1C(=O)[C@]23[C@H](OC(=O)c4cccnc4)[C@H]1CC[C@H]2[C@@]12CO[C@]3(O)[C@@H](O)[C@@H]1C(C)(C)CC[C@@H]2O	16 µg/mL (≈ 34.1 µM)		
C=C1C(=O)[C@@]23C(=O)O[C@H]4CCC(C)(C)[C@H]5[C@H](O)OC[C@@]45[C@@H]2CC[C@@H]1[C@H]3OC(=O)/C=C/c1ccc(F)cc1	0.5 µg/mL (≈ 0.979 µM)	16 µg/mL (≈ 31.3 µM)	16 µg/mL (≈ 31.3 µM)
C=C1C(=O)[C@]23[C@H](OC(=O)c4cnccn4)[C@H]1CC[C@H]2[C@@]12CO[C@]3(O)[C@@H](O)[C@@H]1C(C)(C)CC[C@@H]2O	4 µg/mL (≈ 8.5 µM)	32 µg/mL (≈ 68 µM)	32 µg/mL (≈ 68 µM)
C=C1C(=O)[C@@]23C(=O)O[C@H]4CCC(C)(C)[C@H]5[C@H](O)OC[C@@]45[C@@H]2CC[C@@H]1[C@H]3OC(C)=O	32 µg/mL (≈ 79.1 µM)		
C=C1C(=O)[C@@]23C(=O)O[C@H]4CCC(C)(C)[C@H]5[C@H](O)OC[C@@]45[C@@H]2CC[C@@H]1[C@H]3OC(=O)/C=C/c1ccccc1	2 µg/mL (≈ 4.06 µM)	16 µg/mL (≈ 32.5 µM)	32 µg/mL (≈ 65 µM)
C=C1C(=O)[C@]23[C@H](OC(=O)C4CCCCC4)[C@H]1CC[C@H]2[C@@]12CO[C@]3(O)[C@@H](O)[C@@H]1C(C)(C)CCC2=O	16 µg/mL (≈ 33.9 µM)		
C=C1C(=O)[C@]23[C@H](OC(=O)C4CCCCC4)[C@H]1CC[C@H]2[C@@]12CO[C@]3(O)[C@@H](O)[C@@H]1C(C)(C)CC[C@@H]2O	8 µg/mL (≈ 16.9 µM)		
C=C1C(=O)[C@]23[C@H](OC(=O)/C=C/c4ccc(OC)c(OC)c4)[C@H]1CC[C@H]2[C@@]12CO[C@]3(O)[C@@H](O)[C@@H]1C(C)(C)CC[C@@H]2O	1 µg/mL (≈ 1.8 µM)	8 µg/mL (≈ 14.4 µM)	16 µg/mL (≈ 28.8 µM)
C=C1C(=O)[C@]23[C@H](OC(=O)/C=C/c4ccc(OC)cc4)[C@H]1CC[C@H]2[C@@]12CO[C@]3(O)[C@@H](O)[C@@H]1C(C)(C)CC[C@@H]2O	0.5 µg/mL (≈ 0.953 µM)	4 µg/mL (≈ 7.62 µM)	4 µg/mL (≈ 7.62 µM)
C=C1C(=O)[C@]23[C@H](OC(=O)C4CCCCC4)[C@H]1CC[C@H]2[C@@]12CO[C@]3(O)[C@@H](O)[C@@H]1C(C)(C)CC[C@@H]2OC(C)=O	8 µg/mL (≈ 15.5 µM)		
C=C1C(=O)[C@]23[C@H](OC(=O)Cc4c[nH]c5ccccc45)[C@H]1CC[C@H]2[C@@]12CO[C@]3(O)[C@@H](O)[C@@H]1C(C)(C)CC[C@@H]2O	32 µg/mL (≈ 61.3 µM)		
C=C1C(=O)[C@@]23C(=O)O[C@H]4CCC(C)(C)[C@H]5C(=O)OC[C@@]45[C@@H]2CC[C@@H]1[C@H]3OC(C)=O	2 µg/mL (≈ 4.97 µM)	64 µg/mL (≈ 159 µM)	64 µg/mL (≈ 159 µM)
C=C1C(=O)[C@@]23C(=O)O[C@H]4CCC(C)(C)[C@H]5[C@H](O)OC[C@@]45[C@@H]2CC[C@@H]1[C@H]3O	32 µg/mL (≈ 88.3 µM)		
C=C1C(=O)[C@@]23C(=O)O[C@H]4CCC(C)(C)[C@H]5[C@H](O)OC[C@@]45[C@@H]2CC[C@@H]1[C@H]3OC(=O)c1ccc(C(F)(F)F)cc1	8 µg/mL (≈ 15 µM)	16 µg/mL (≈ 29.9 µM)	16 µg/mL (≈ 29.9 µM)
